Test results: ChEMBL document CHEMBL1201862, “PubChem BioAssay data set” (2004)
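Test compounds were applied to cells in 96-well plates for 48 hours at 5 doses. At the GI50, growth is halved.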 Activity calls are given as the source filed them. No stated cut-off is given here; in the data, active = GI50 up to about 1.1 µM and inactive = higher.

Assays:
Assay in all cases: NCI anticancer screen, dose series, 48 h
A549 = test system: A549
HCT-15 = test system: HCT-15
SK-MEL-2 = test system: SK-MEL-2
SF-539 = test system: SF-539
SNB-75 = test system: SNB-75
CAKI-1 = test system: CAKI-1
UACC-257 = test system: UACC-257
HOP-62 = test system: HOP-62
A498 = test system: A498
CCRF-CEM = test system: CCRF-CEM
HCC 2998 = test system: HCC 2998
LOX IMVI = test system: LOX IMVI
UO-31 = test system: UO-31
HOP-92 = test system: HOP-92
OVCAR-5 = test system: OVCAR-5
UACC-62 = test system: UACC-62
NCI-H226 = test system: NCI-H226
SK-OV-3 = test system: SK-OV-3
SR = test system: SR
786-0 = test system: 786-0

SMILES	GI50 (A549)	GI50 (HCT-15) [µM]	GI50 (SK-MEL-2)	GI50 (SF-539)	GI50 (SNB-75)	GI50 (CAKI-1)	GI50 (UACC-257)	GI50 (HOP-62)	GI50 (A498)	GI50 (CCRF-CEM)	GI50 (HCC 2998)	GI50 (LOX IMVI)	GI50 (UO-31)	GI50 (HOP-92)	GI50 (OVCAR-5)	GI50 (UACC-62)	GI50 (NCI-H226)	GI50 (SK-OV-3)	GI50 (SR)	GI50 (786-0)
CN1CCN(P2(=S)Oc3ccc4ccccc4c3-c3c(ccc4ccccc34)O2)CC1	40.3 µM (inactive)	28.7	18.8 µM (inactive)	21.5 µM (inactive)	37.5 µM (inactive)	15.4 µM (inactive)	29.7 µM (inactive)	26.3 µM (inactive)	52.5 µM (inactive)	29.8 µM (inactive)	21 µM (inactive)	18.9 µM (inactive)	18.4 µM (inactive)	13.6 µM (inactive)	54.7 µM (inactive)	34.5 µM (inactive)	26.2 µM (inactive)	> 71.3 µM (inactive)	–	–
c1ccc(CCn2cncn2)cc1	> 100 µM (inactive)	> 100	–	> 100 µM (inactive)	> 100 µM (inactive)	–	> 100 µM (inactive)	> 100 µM (inactive)	–	> 100 µM (inactive)	> 100 µM (inactive)	–	> 100 µM (inactive)	> 100 µM (inactive)	> 100 µM (inactive)	> 100 µM (inactive)	> 100 µM (inactive)	> 100 µM (inactive)	> 100 µM (inactive)	–
CC(C)=CCC/C(C)=C/CCC1(C)C=Cc2c(c3ccccc3oc2=O)O1 (stereo unspecified)	17.5 µM (inactive)	16	17.4 µM (inactive)	16.1 µM (inactive)	13.4 µM (inactive)	17.2 µM (inactive)	17.1 µM (inactive)	13.2 µM (inactive)	13.4 µM (inactive)	38.5 µM (inactive)	17.7 µM (inactive)	18 µM (inactive)	15.5 µM (inactive)	12.2 µM (inactive)	18.6 µM (inactive)	10.2 µM (inactive)	16.1 µM (inactive)	27.3 µM (inactive)	–	–
CNS(=O)(=O)NN(C)S(=O)(=O)c1ccc(F)cc1	> 100 µM (inactive)	> 100	> 100 µM (inactive)	> 100 µM (inactive)	47 µM (inactive)	> 100 µM (inactive)	> 100 µM (inactive)	> 100 µM (inactive)	> 100 µM (inactive)	> 100 µM (inactive)	> 100 µM (inactive)	90.2 µM (inactive)	> 100 µM (inactive)	> 100 µM (inactive)	> 100 µM (inactive)	> 100 µM (inactive)	> 100 µM (inactive)	> 100 µM (inactive)	–	> 100 µM (inactive)
COc1cc2c(cc1OC)-c1cc3ccccc3c[n+]1CC2	> 100 µM (inactive)	–	> 100 µM (inactive)	> 100 µM (inactive)	> 100 µM (inactive)	> 100 µM (inactive)	89.5 µM (inactive)	> 100 µM (inactive)	–	> 100 µM (inactive)	> 100 µM (inactive)	> 100 µM (inactive)	> 100 µM (inactive)	> 100 µM (inactive)	> 100 µM (inactive)	> 100 µM (inactive)	> 100 µM (inactive)	> 100 µM (inactive)	68.2 µM (inactive)	–
CCCCCCCCCCCCCCCCCc1cc(Cl)nc(Cl)n1	> 100 µM (inactive)	> 100	> 100 µM (inactive)	> 100 µM (inactive)	> 100 µM (inactive)	–	> 100 µM (inactive)	> 100 µM (inactive)	–	> 100 µM (inactive)	> 100 µM (inactive)	> 100 µM (inactive)	> 100 µM (inactive)	–	> 100 µM (inactive)	> 100 µM (inactive)	> 100 µM (inactive)	> 100 µM (inactive)	> 100 µM (inactive)	> 100 µM (inactive)
Cc1cc(C)c(C2=NO[C@@H]3C(=O)N(c4ccc(Cc5ccc(N6C(=O)[C@H]7C(c8c(C)cc(C)cc8C)=NO[C@H]7C6=O)cc5)cc4)C(=O)[C@H]23)c(C)c1	> 100 µM (inactive)	> 100	> 100 µM (inactive)	> 100 µM (inactive)	> 100 µM (inactive)	> 100 µM (inactive)	68.4 µM (inactive)	> 100 µM (inactive)	> 100 µM (inactive)	> 100 µM (inactive)	> 100 µM (inactive)	> 100 µM (inactive)	> 100 µM (inactive)	> 100 µM (inactive)	> 100 µM (inactive)	> 100 µM (inactive)	> 100 µM (inactive)	> 100 µM (inactive)	–	> 100 µM (inactive)
N#Cc1ccc(-c2nc(C#N)c(N)o2)cc1	> 10 µM (inactive)	> 10	–	> 10 µM (inactive)	> 10 µM (inactive)	> 10 µM (inactive)	> 10 µM (inactive)	> 10 µM (inactive)	–	> 10 µM (inactive)	> 10 µM (inactive)	> 10 µM (inactive)	> 10 µM (inactive)	> 10 µM (inactive)	–	> 10 µM (inactive)	> 10 µM (inactive)	> 10 µM (inactive)	> 10 µM (inactive)	> 10 µM (inactive)
Cc1cc(C)n(-c2c(O)ccc(O)c2-n2nc(C)cc2C)n1	> 100 µM (inactive)	> 100	> 100 µM (inactive)	> 100 µM (inactive)	> 100 µM (inactive)	> 100 µM (inactive)	–	> 100 µM (inactive)	> 100 µM (inactive)	> 100 µM (inactive)	> 100 µM (inactive)	> 100 µM (inactive)	> 100 µM (inactive)	> 100 µM (inactive)	> 100 µM (inactive)	> 100 µM (inactive)	–	> 100 µM (inactive)	–	> 100 µM (inactive)
CC1=C(C(=O)OCCc2ccc([N+](=O)[O-])cc2)C(c2cccc([N+](=O)[O-])c2)C(C(=O)OC(C)C)=C(C)N1 (stereo unspecified)	4.99 µM (inactive)	5.47	7.62 µM (inactive)	> 100 µM (inactive)	5.69 µM (inactive)	4.68 µM (inactive)	5.89 µM (inactive)	5.55 µM (inactive)	–	3.57 µM (inactive)	75.9 µM (inactive)	4.72 µM (inactive)	5.43 µM (inactive)	–	> 100 µM (inactive)	4.48 µM (inactive)	2.86 µM (inactive)	> 100 µM (inactive)	3.49 µM (inactive)	6.49 µM (inactive)
Nc1ccc(Sc2nnc(N)s2)cc1	> 100 µM (inactive)	> 100	–	> 100 µM (inactive)	> 100 µM (inactive)	–	> 100 µM (inactive)	> 100 µM (inactive)	–	> 100 µM (inactive)	> 100 µM (inactive)	–	> 100 µM (inactive)	–	> 100 µM (inactive)	–	–	> 100 µM (inactive)	> 100 µM (inactive)	> 100 µM (inactive)
COC1=C2CC(C)CC(OC)C(O)C(C)/C=C(\C)C(OC(N)=O)C(OC)/C=C\C=C(/C)C(=O)NC(=C(/C=N/C(C)(C)C)C1=O)C2=O (stereo unspecified)	2.47 µM (inactive)	6.28	4.85 µM (inactive)	1.66 µM (inactive)	0.767 µM (active)	3.08 µM (inactive)	2.55 µM (inactive)	5.86 µM (inactive)	3.57 µM (inactive)	0.857 µM (active)	1.68 µM (inactive)	4.41 µM (inactive)	8.81 µM (inactive)	0.303 µM (active)	37.3 µM (inactive)	5.38 µM (inactive)	1.75 µM (inactive)	24.7 µM (inactive)	–	–
CCOC(=O)/C=C/c1c(C)[nH]c(=O)[nH]c1=O	> 250 µM (inactive)	> 250	> 250 µM (inactive)	> 250 µM (inactive)	> 250 µM (inactive)	191 µM (inactive)	> 250 µM (inactive)	> 250 µM (inactive)	> 250 µM (inactive)	> 250 µM (inactive)	> 250 µM (inactive)	> 250 µM (inactive)	> 250 µM (inactive)	19.1 µM (inactive)	> 94.4 µM (inactive)	> 250 µM (inactive)	> 250 µM (inactive)	> 141 µM (inactive)	–	–
COC(=O)C1=C(C(=O)OC)C2(C)C=CC1O2 (stereo unspecified)	99.8 µM (inactive)	16	21.4 µM (inactive)	18.9 µM (inactive)	24.3 µM (inactive)	–	15.9 µM (inactive)	34.9 µM (inactive)	23.7 µM (inactive)	–	16.2 µM (inactive)	16.7 µM (inactive)	4.51 µM (inactive)	5.01 µM (inactive)	17.6 µM (inactive)	17.6 µM (inactive)	19.6 µM (inactive)	> 100 µM (inactive)	–	3.78 µM (inactive)
CCSc1[nH]c(/N=C(/NC(=O)c2ccccc2)NC(C)C)c(C(N)=O)c1C(N)=O	> 10 µM (inactive)	> 10	–	–	> 10 µM (inactive)	> 10 µM (inactive)	> 10 µM (inactive)	–	–	> 10 µM (inactive)	> 10 µM (inactive)	> 10 µM (inactive)	–	> 10 µM (inactive)	–	> 10 µM (inactive)	–	> 10 µM (inactive)	> 10 µM (inactive)	> 10 µM (inactive)
C=C(C)C(=O)O[C@H]1CC2=C[C@@H](C[C@@]3(C)O[C@@H]3[C@H]3OC(=O)C(=C)[C@@H]31)OC2=O [ELEPHANTOPIN]	7.33 µM (inactive)	0.927	4.34 µM (inactive)	3.57 µM (inactive)	7.98 µM (inactive)	1.86 µM (inactive)	1.85 µM (inactive)	52.5 µM (inactive)	5.13 µM (inactive)	–	5.11 µM (inactive)	0.31 µM (active)	6.07 µM (inactive)	1.13 µM (inactive)	6.55 µM (inactive)	3.5 µM (inactive)	10.2 µM (inactive)	11.5 µM (inactive)	–	–
